According to PubChem BioAssay (NCI):
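Dose response: 5 concentrations. Exposure: 48 h. Format: 96-well plates. Endpoint: linear interpolation; highest concentration if not reached. TGI: total growth inhibition.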

What was measured:
Test in all cases: NCI anticancer screen, dose series, 48 h
RXF 393 renal = tested on: RXF 393 renal
KM20L2 colon = tested on: KM20L2 colon
M19-MEL melanoma = tested on: M19-MEL melanoma
RXF-631 renal = tested on: RXF-631 renal
DMS 114 small cell lung = tested on: DMS 114 small cell lung
LXFL 529 NSCLC = tested on: LXFL 529 NSCLC
SNB-78 CNS = tested on: SNB-78 CNS
DLD-1 colon = tested on: DLD-1 colon
OVCAR-5 ovarian = tested on: OVCAR-5 ovarian
XF 498 CNS = tested on: XF 498 CNS
DMS 273 small cell lung = tested on: DMS 273 small cell lung
UO-31 renal = tested on: UO-31 renal
OVCAR-8 ovarian = tested on: OVCAR-8 ovarian
HOP-18 NSCLC = tested on: HOP-18 NSCLC
NCI-H226 lung = tested on: NCI-H226 lung
MDA-MB-435 = tested on: MDA-MB-435

Row | SMILES | TGI (RXF 393 renal) [µM] | TGI (KM20L2 colon) [µM] | TGI (M19-MEL melanoma) [µM] | TGI (RXF-631 renal) [µM] | TGI (DMS 114 small cell lung) [µM] | TGI (LXFL 529 NSCLC) [µM] | TGI (SNB-78 CNS) [µM] | TGI (DLD-1 colon) [µM] | TGI (OVCAR-5 ovarian) [µM] | TGI (XF 498 CNS) [µM] | TGI (DMS 273 small cell lung) [µM] | TGI (UO-31 renal) [µM] | TGI (OVCAR-8 ovarian) [µM] | TGI (HOP-18 NSCLC) [µM] | TGI (NCI-H226 lung) [µM] | TGI (MDA-MB-435) [µM]
1 | NC12CC3CC(C1)CC(Cl)(C3)C2 | > 100 | > 100 | > 100 | > 100 | > 100 | > 100 | > 100 | > 100 | > 100 | > 100 | > 100 | > 100 | > 100 |  |  | 
2 | COc1ccc(/C=C2\N=C(c3ccccc3)N(Nc3nnc(NN4C(=O)/C(=C/c5ccc(OC)cc5)N=C4c4ccccc4)c4ccccc34)C2=O)cc1 | > 100 | > 100 | > 100 |  | > 100 | > 100 | > 100 | > 100 | > 100 |  | > 100 |  | > 100 | > 100 | > 100 | 
3 | CCOC(=O)c1nc2ccc(Cl)cc2c2c1CCO2 | > 100 | > 100 | > 100 |  | > 100 | > 100 | > 100 | > 100 | > 100 | > 100 | > 100 |  | > 100 | > 100 | > 100 | 
4 | COC(=O)[C@H]1C=C[C@@H](C)n2c(=O)c3ccccc3c(=O)n21 | > 100 | > 100 | > 100 |  | > 100 | > 100 | > 100 | > 100 | > 100 | > 100 | > 100 | > 100 | > 100 |  | > 100 | 
5 | NC(=O)c1csc(CCCCCCc2nc(C(N)=O)cs2)n1 | > 100 | > 100 | 49.3 | > 100 | > 100 | > 100 | > 100 | > 100 | > 100 |  | > 100 | > 100 | > 100 | > 100 | > 100 | 
6 | CC(=O)OC1OC2C(NC(=O)OC(C)(C)C)C1CC2(OCc1ccccc1)OCc1ccccc1 (configuration not stated) | 32.2 | 39.3 | > 74.1 | > 100 | 58 | > 100 | > 100 |  | 82.4 | 41.9 | 69.5 | 30.3 | > 100 | 46.5 | 56.5 | 
7 | Cn1c(=O)c2c(nc(C[N+]3([O-])CCOCC3)n2C)n(C)c1=O | > 100 | > 100 | > 100 |  | > 100 | > 100 |  | > 100 | > 100 | > 100 | > 100 | > 100 | > 100 |  | > 100 | 
8 | CCOC(OCC)c1ccc(/C=C/c2cc(OC)c(OC)c(OC)c2)cc1 | 40.9 | 41.8 | 37 | 70.7 | 50.2 | 41.7 | 87.9 | 38.8 | 55.7 |  | 41.3 | 45.7 | 76.3 | > 100 | 62.5 | 
9 | O=C1C(Cl)C(c2ccc(Cl)cc2)N1n1cnc2ccccc2c1=O (configuration not stated) | > 100 | > 100 | > 100 |  | > 100 | > 100 | > 100 | > 100 | > 100 | > 100 | > 100 | > 100 | > 100 | > 100 | > 100 | 
10 | CC(NC(=O)/C(C#N)=C/c1ccc2[nH]ccc2c1)c1ccccc1 (configuration not stated) | 34.5 | 33.2 |  |  | 37.6 | 41.4 | 90.4 | 34.5 | 37.3 |  | 40.7 | 28.3 | 48.8 | 53.3 | 53.8 | 31.1
11 | COc1ccc(-c2onc(-c3c(C)cc(C)cc3C)c2C2=NCCCN2)cc1 | > 100 | > 100 | > 100 | > 100 |  | > 100 | > 100 | > 100 | > 100 | > 100 |  | > 100 | > 100 | > 100 | > 100 | 
12 | O=C(O)c1cc(-c2ccccc2O)nc2ccccc12 |  | > 100 | > 100 |  | > 100 | > 100 | > 100 | > 100 | > 100 | > 100 |  | > 100 | > 100 | > 100 |  | 
13 | COC1=CC(C2c3cc4c(cc3[C@@H](Nc3ccc([N+](=O)[O-])cc3)C3COC(=O)[C@H]23)OCO4)=CC(=O)C1=O (some centres not stated) | 86.8 | > 62.6 | 45.2 | 14.1 | 8.28 | > 78.7 | > 100 | > 96.7 | 41 | 50.7 | 5.12 | 20.7 | 40.4 | > 100 | 6.65 | 
14 | C/C(=N\NS(=O)(=O)c1ccc(C)cc1)C(CN(C)C)C(c1ccccc1)c1c(O)c2ccccc2oc1=O (configuration not stated) | > 100 | > 100 | > 100 | > 100 |  | > 100 | > 100 | > 100 | > 100 | > 100 |  | > 100 | > 100 | > 100 | > 100 | > 100
15 | NC(=O)C12C3C4C1C1C2C3C41C(N)=O (configuration not stated) | > 100 | > 100 | > 100 |  | > 100 | > 100 |  | > 100 | > 100 |  | > 100 | > 100 | > 100 | > 100 | > 100 | 
16 | CC(=O)c1c(O)ccc2c1CC(CC=O)O2 (configuration not stated) | > 100 | > 100 | > 100 | > 100 | 55.1 | > 100 | > 100 | > 100 | > 100 | > 100 |  | > 100 | > 100 |  | > 100 | 
17 | CN(C)CCCSc1c2ccccc2nc2cc(NCC(=O)Nc3ccccc3-c3ccccc3NC(=O)CNc3ccc4c(SCCCN(C)C)c5ccccc5nc4c3)ccc12 | > 100 | > 100 | > 100 |  | > 100 | > 100 | > 100 | > 100 | > 100 | > 100 | > 100 | > 100 | > 100 | > 100 | > 100 | 
18 | Cc1nccc2c1cnc1ccnn12 | > 100 | > 100 | > 100 | > 100 | > 100 | > 100 | > 100 | > 100 | > 100 |  | > 100 | > 100 | > 100 |  | > 100 | 
19 | COc1ccc(C2CCC(Cl)(OC)CC2C=O)cc1 (configuration not stated) | 43.9 | > 100 | > 100 |  | 66.7 | > 100 |  | > 100 | > 100 |  | > 100 | > 100 | > 100 | > 100 | > 100 | 
20 | CCC(CC)C(=O)OC[n+]1cccc(-c2c(COC(=O)NC(C)C)c(COC(=O)NC(C)C)c3n2CCC3)c1 | > 100 |  |  |  |  |  |  |  | > 100 |  |  | > 100 | > 100 |  | > 100 | > 100
21 | CCOC(=O)C1=C(O)c2ccccc2C(=O)C1=O | > 100 |  | 54.4 |  | > 100 |  | > 100 | > 100 | > 100 | > 100 | > 100 | > 100 | > 100 | > 100 | > 100 | 
